Test results published in US7667036B2, “Pyrazolo[1,5-a]pyrimidine derivatives” (Teijin Pharma Limited, priority 2004, dated 2010).

How the values were obtained:
MAPKAP-K2 [1] = target: T1, MAPKAP-K2 (Homo sapiens, UniProt P49137); test: MAPKAP-K2 enzyme activity inhibition assay, Method A (33P-ATP, P81 filter plate); assay type: biochemical; details: 10 μmol/L ATP, 30 μmol/L peptide KKLNRTLSVA, 3% DMSO, 30 min room temperature, read-out: Inhibitory activity (MAPKAP-K2 IC50 class)
Description: (§1) The assay of inhibitory activity was performed according to Method A described below for Compound No. 1, 2, 3, 4, 20, 21, 22, 23, 24, 25, 26, 79, 80 and 81, and Method B described below for the other compounds.
A compound was dissolved in DMSO to make its concentration to 10 mmol/L, and further a part of the resulting solution was taken out and stored at −20° C. The stock solution was diluted with DMSO to prepare a stock solution having a 30-fold concentration of the required range. Subsequently the resultant stock solution was diluted to 1:3 to prepare a stock solution having a 10-fold concentration of the required range, and an aliquot of 5 μL of each solution was used for every reaction with 50 μL. During the continuous dilution of all compounds, the final DMSO concentration was maintained at 3% and the solubility of compounds was maximized. Compounds were routinely tested at a final concentration ranging from 300 μmol/L to 0.001 μmol/L, but were sometimes tested at a lower concentration depending upon their activity. (MAPKAP-K2 Enzyme Activity Assay)
The kinase reaction was carried out using a 96-well round-bottomed polypropylene microplate. MAPKAP-Kinase 2 was diluted to 0.5 mU/μL with diluent buffer (50 mmol/L Tris/HCl (pH7.5), 0.1 mmol/L EGTA, 0.1% (v/v) β-mercaptoethanol, and 1 mg/mL BSA). To each well was added 5 μL of a compound or 30% DMSO and subsequently 25 μL of substrate cocktail (final concentration: 10 μmol/L ATP, 30 μmol/L peptide (KKLNRTLSVA), 50 mmol/L 33P-γ-ATP/Tris solution of (pH 7.5, 0.5 μCi), 0.1 mmol/L EGTA, 10 mmol/L magnesium acetate and 0.1% β-mercaptoethanol). To each well was added 20 μL of an enzyme solution or 20 μL of a diluent buffer without contabing enzyme to initiate the reaction, After shaking the plate for 10 sec, it was fibber allowed to stand at room temperature for 30 min. The reaction was terminated with 50 μL of a 150 mmol/L phosphoric acid solution. Then, 90 μL of a reaction mixture solution was transferred to a 96-well P81 filter plate (Whatmann), and incubation was performed at room temperature for 5 min. Subsequently, the filter plate was washed 4 times with 200 μL of a 75 mmol/L phosphoric acid solution per well through a plate suction manifold (Millipore), followed by further drying in an oven for 2 to 3 hrs. Next, after adding Packard Microscint “0” (30 μL) to each well and shaking the plate for 30 min, scintillation measurement was performed using a Packard TopCount scintillation counter. […]

MAPKAP-K2 [2] = target: T1, MAPKAP-K2; test: MAPKAP-K2 enzyme activity inhibition assay, Method B (33P-ATP, MultiScreen-PH plate); assay type: biochemical; details: recombinant human MAPKAP-K2, 0.5% DMSO, 30 min room temperature, read-out: Inhibitory activity (MAPKAP-K2 IC50 class)
Description: as §1
A compound was dissolved in […] to make its concentration to 20 mmol/L, and the resultant solution was stored at −20° C. The stock solution was sequentially diluted with DMSO to prepare a solution having a 200-fold concentration of the required range. Further the solution was diluted with water to 1:20 to prepare a solution having a 10-fold concentration of the required range, and an aliquot of 5 μL of each solution was used for every reaction with 50 μL. During the continuous dilution of all compounds, the final DMSO concentration was maintained at 0.5%. Compounds were routinely tested at a final concentration ranging from 100 μmol/L to 0.03 μmol/L, but were sometimes tested at a lower concentration depending upon their activity.
The reaction was initiated by adding 25 μL of a peptide substrate solution [60 μmol/L substrate peptide, 20 μmol/L ATP, 50 mmol/L Tris buffer (pH 7.5), 0.1 mmol/L EGTA, 0.1% β-mercaptoetanol, 20 mmol/L magnesium acetate, and 0.1 μCi [γ-33P]ATP (specific radio activity: approximately 110 TBq/mmol)] to 5 μL of a 5% DMSO solution of the test compound and subsequently adding 20 μL of a MAPKAP-K2 enzyme solution [10 mU recombinant human MAPKAP-K2, 50 mmol/L Tris buffer (pH 7.5), 0.1 mmol/L EGTA, 0.1% β-mercaptoethanol, 0.1% BSA]. After performing the reaction for 30 min at room temperature, an equivalent volume of 200 mmol/L phosphoric acid solution was added to terminate the reaction. Subsequently, 90 μL of the reaction product was adsorbed on a MultiScreen-PH Plate (Millipore) and then rinsed with 100 mmol/L phosphoric acid solution. After drying the plate, 30 μL of MicroScint-O (Packard BioScience) was added, and further the count per minute was measured by a scintillation counter to determine the inhibitory activity. The substrate peptide was Lys-Lys-Leu-Asn-Arg-Tlr-Leu-Ser-Val-Ala.
• % Control=(X−B)/(Tot−B)×100 • % Inhibition=100—% Control • X=count per minute of a test compound well • B=count per minute of a well without containing enzyme • Tot=count per minute of a well with DMSO solvent only, without containing the test compound (MAPKAP-K2 inhibitory activity) • IC50 value=the compound concentration at 50% inhibition

T1 sequence (P49137 whole entry): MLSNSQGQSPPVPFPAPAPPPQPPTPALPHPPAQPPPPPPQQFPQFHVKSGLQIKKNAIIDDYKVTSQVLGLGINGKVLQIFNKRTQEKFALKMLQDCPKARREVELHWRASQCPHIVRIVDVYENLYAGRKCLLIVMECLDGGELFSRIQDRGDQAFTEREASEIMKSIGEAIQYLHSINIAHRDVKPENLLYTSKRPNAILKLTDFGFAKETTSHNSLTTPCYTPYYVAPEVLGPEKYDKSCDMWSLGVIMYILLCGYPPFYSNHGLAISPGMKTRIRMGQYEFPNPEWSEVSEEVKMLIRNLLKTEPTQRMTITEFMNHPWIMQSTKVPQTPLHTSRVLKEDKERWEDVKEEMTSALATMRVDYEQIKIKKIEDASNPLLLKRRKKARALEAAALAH

IC50 (MAPKAP-K2 [1]) [µM]	IC50 (MAPKAP-K2 [2]) [µM]	Compound
2 to 20	–	C=CCC1CC(N)CCC1Oc1nc2ccnn2c(Nc2ccc(OCC)cc2)c1C (centres unmarked) [compound 25]
2 to 20	–	CCOc1ccc(Nc2c(C)c(SCCN)nc3ccnn23)cc1 [compound 81]
2 to 20	–	CCOc1ccc(Nc2c(C)c(SC3CCCNC3)nc3ccnn23)cc1 (centres unmarked) [compound 80]
2 to 20	–	C=CCC1CC(NC)CCC1Oc1nc2ccnn2c(Nc2ccc(OCC)cc2)c1C (centres unmarked) [compound 26]
–	2 to 20	CCC[C@@H]1CCNC[C@H]1Oc1nc2ccnn2c(Nc2ccc(OCC)cc2)c1C (racemic) [Compound No. 16, (dl)-(4-ethoxyphenyl)-[6-methyl-5-(trans-4-propylpiperidin-3-yloxy)pyrazolo[1,5-a]pyrimidin-7-yl]amine]
–	≤ 2	Cc1c(O[C@H]2CC[C@@H](N)CC2)nc2ccnn2c1Nc1ccc(I)cc1 [compound 77]
–	≤ 2	CC(=O)c1ccc(-c2ccc(Nc3c(C)c(O[C@H]4CC[C@@H](N)CC4)nc4ccnn34)cc2)s1 [compound 92]
–	20 to 100	CCOc1ccc(Nc2c(C)c(O[C@@H]3CCNC3)nc3ccnn23)cc1 [compound 264]
–	2 to 20	CCOc1ccc(Nc2c(C)c(OC3CCCNC3)nc3ccnn23)cc1 (stereo not drawn) [Compound No. 5, (dl)-(4-ethoxyphenyl)-[6-methyl-5-(pyperdin-3-yloxy)pyrazolo [1,5-a]pyrimidin-7-yl]-amine]
–	2 to 20	Cc1c(OC2CCCNC2)nc2ccnn2c1NC1CCCC1 (centres unmarked) [compound 272]
–	≤ 2	Cc1c(O[C@H]2CC[C@H](N)CC2)nc2ccnn2c1Nc1ccc(-c2cccc(N)c2)cc1 [Compound No. 93, N-4′-[5-(trans-4-aminocyclohexyloxy)-6-methylpyrazolo[1,5-a]pyrimidin-7-yl] biphenyl-3,4′-diamine]
–	2 to 20	Cc1c(OC2CCCNC2)nc2ccnn2c1Nc1ccc2nc(SC(C)C)sc2c1 (centres unmarked) [compound 74]
–	≤ 2	COc1ccc(Nc2ccc(Nc3c(C)c(O[C@H]4CC[C@@H](N)CC4)nc4ccnn34)cc2)cc1 [compound 66]
–	2 to 20	Cc1c(OC2CCNCC2)nc2ccnn2c1Nc1ccc(OCc2ccccc2)cc1 [compound 240]
–	≤ 2	CCOc1ccc(Nc2c(CCCO)c(O[C@H]3CC[C@H](N)CC3)nc3ccnn23)cc1 [Compound No. 88, 3-[5-(trans-4-aminocyclohexyloxy)-7-(4-ethoxyphenylamino)-pyrazolo [1,5-a]pyrimidin-6-yl]propan-1-ol]
–	20 to 100	CCOc1ccc(Nc2c(C)c(OCCN)nc3ccnn23)cc1 [compound 28]
–	20 to 100	CCOc1ccc(Nc2c(C)c(OCC3CCCCN3)nc3ccnn23)cc1 (centres unmarked) [compound 245]
–	≤ 2	Cc1c(O[C@H]2CC[C@H](N)CC2)nc2ccnn2c1Nc1ccc(OCCOCc2ccccc2)cc1 [Compound No. 91, [5-(trans-4-aminocyclohexyloxy)-6-methylpyrazolo[1,5-a]pyrimidin-7-yl]-[4-(2-benzyloxyethoxy)phenyl]-amine]
–	20 to 100	COc1ccc(Cl)cc1Nc1c(C)c(OC2CCCNC2)nc2ccnn12 (centres unmarked) [compound 55]
–	20 to 100	COC(=O)c1ccc(Nc2c(C)c(O[C@H]3CC[C@@H](N)CC3)nc3ccnn23)cc1 [compound 67]
